Measurements from patent publication US20170275261A1, “1,3,4-THIADIAZOLES HAVING A HERBICIDAL ACTIVITY, THEIR AGRONOMICAL COMPOSITIONS AND RELATIVE USE” (ISAGRO S.P.A., priority 2014, published 2017).

Columns and labels:
Type in all cases: in vivo
Details in all cases: dose 250 g/ha, fifteen days after treatment, damage vs control
Alopecurus myosuroides [1] = assay: Herbicidal activity in pre-emergence
Protocol: (§1) The herbicidal activity in pre-emergence of the compounds of the invention was evaluated according to the following operating procedures.
(§2) The plant species of interest (weeds or crops) were seeded in vases having an upper diameter of 10 cm, a height of 10 cm and containing sandy earth. 10 vases were used for each plant species.
(§3) Water was added to each vase in a suitable quantity for the germination of the seeds. The vases were then divided into two groups, each containing 5 vases for each weed or crop.
(§4) One day after seeding, the first group of vases was treated with a dispersion having the following composition:
(§5) Said dispersion was prepared by adding a compound of the present invention at the desired concentration to a hydroacetonic solution containing acetone at 20% by volume and Tween 20 at 0.5% by weight, with respect to the total weight of the dispersion.
(§6) The desired concentration of a compound of the present invention corresponds to the concentration necessary for allowing the application of an effective dose of said compound equal to 250 g/ha to the plant species of interest.
(§7) The second group was only treated with a hydroacetonic solution containing acetone at 20% by volume and Tween 20 at 0.5% by weight, and was used as a comparison (control).
(§8) All the vases were kept under observation in a conditioned environment under the following environmental conditions: • temperature: 24° C.; • relative humidity: 60%; • photo-period: 16 hours; • light intensity: 12,000 lux.
(§9) Every two days the vases were uniformly watered to ensure a sufficient humidity degree for a good growth of the plants.

Apera spica-venti [2] = assay: Herbicidal activity in pre-emergence
Protocol: as §1, §2, §3, §4, §5, §6, §7, §8, §9

Digitaria sanguinalis [3] = assay: Herbicidal activity in pre-emergence
Protocol: as §1, §2, §3, §4, §5, §6, §7, §8, §9

Echinochloa crusgalli [4] = assay: Herbicidal activity in pre-emergence
Protocol: as §1, §2, §3, §4, §5, §6, §7, §8, §9

Eleusine indica [5] = assay: Herbicidal activity in pre-emergence
Protocol: as §1, §2, §3, §4, §5, §6, §7, §8, §9

Lolium rigidum [6] = assay: Herbicidal activity in pre-emergence
Protocol: as §1, §2, §3, §4, §5, §6, §7, §8, §9

Poa Annua [7] = assay: Herbicidal activity in pre-emergence
Protocol: as §1, §2, §3, §4, §5, §6, §7, §8, §9

Setaria viridis [8] = assay: Herbicidal activity in pre-emergence
Protocol: as §1, §2, §3, §4, §5, §6, §7, §8, §9

Alopecurus myosuroides [9] = assay: Herbicidal activity in post-emergence
Protocol: (§10) The herbicidal activity in post-emergence of the compounds of the invention was evaluated according to the following operating procedures.
as §2, §3, §7, §8, §9

Apera spica-venti [10] = assay: Herbicidal activity in post-emergence
Protocol: as §10, §2, §3, §7, §8, §9

Digitaria sanguinalis [11] = assay: Herbicidal activity in post-emergence
Protocol: as §10, §2, §3, §7, §8, §9

Echinochloa crusgalli [12] = assay: Herbicidal activity in post-emergence
Protocol: as §10, §2, §3, §7, §8, §9

Eleusine indica [13] = assay: Herbicidal activity in post-emergence
Protocol: as §10, §2, §3, §7, §8, §9

Lolium rigidum [14] = assay: Herbicidal activity in post-emergence
Protocol: as §10, §2, §3, §7, §8, §9

Poa Annua [15] = assay: Herbicidal activity in post-emergence
Protocol: as §10, §2, §3, §7, §8, §9

Setaria viridis [16] = assay: Herbicidal activity in post-emergence
Protocol: as §10, §2, §3, §7, §8, §9

Row | Compound | Herbicidal activity in pre-emergence (Alopecurus myosuroides [1]) | Herbicidal activity in pre-emergence (Apera spica-venti [2]) | Herbicidal activity in pre-emergence (Digitaria sanguinalis [3]) | Herbicidal activity in pre-emergence (Echinochloa crusgalli [4]) | Herbicidal activity in pre-emergence (Eleusine indica [5]) | Herbicidal activity in pre-emergence (Lolium rigidum [6]) | Herbicidal activity in pre-emergence (Poa Annua [7]) | Herbicidal activity in pre-emergence (Setaria viridis [8]) | Herbicidal activity in post-emergence (Alopecurus myosuroides [9]) | Herbicidal activity in post-emergence (Apera spica-venti [10]) | Herbicidal activity in post-emergence (Digitaria sanguinalis [11]) | Herbicidal activity in post-emergence (Echinochloa crusgalli [12]) | Herbicidal activity in post-emergence (Eleusine indica [13]) | Herbicidal activity in post-emergence (Lolium rigidum [14]) | Herbicidal activity in post-emergence (Poa Annua [15]) | Herbicidal activity in post-emergence (Setaria viridis [16])
1 | O=S(=O)(c1nnc(C(F)(F)F)s1)c1c(Cl)cccc1Cl [CR1, 2-(2,6-dichlorophenylsulfonyl)-5-(trifluoromethyl)-1,3,4-thiadiazole, reference compound] | 0 (0-10% of damage) | 0 (0-10% of damage) | 0 (0-10% of damage) | 0 (0-10% of damage) | 0 (0-10% of damage) | 0 (0-10% of damage) | 0 (0-10% of damage) | 0 (0-10% of damage) | 0 (0-10% of damage) | 0 (0-10% of damage) | 0 (0-10% of damage) | 0 (0-10% of damage) | 0 (0-10% of damage) | 0 (0-10% of damage) | 0 (0-10% of damage) | 0 (0-10% of damage)
2 | Cc1nnc([S+]([O-])Cc2c(Cl)cccc2Cl)s1 (stereo not shown) [Nr. 1, 2-[(2,6-dichlorobenzyl)-sulfinyl]-5-methyl-1,3,4-thiadiazole] | 4 (71-90% of damage) | 5 (91% of damage-death of the plant) | 5 (91% of damage-death of the plant) | 4 (71-90% of damage) | 5 (91% of damage-death of the plant) | 4 (71-90% of damage) | 5 (91% of damage-death of the plant) | 4 (71-90% of damage) | 4 (71-90% of damage) | 5 (91% of damage-death of the plant) | 5 (91% of damage-death of the plant) | 4 (71-90% of damage) | 5 (91% of damage-death of the plant) | 4 (71-90% of damage) | 5 (91% of damage-death of the plant) | 4 (71-90% of damage)
3 | Cc1nnc([S+]([O-])Cc2c(C(F)(F)F)nn(C)c2OCC(F)(F)F)s1 (stereo not shown) [Nr. 9] | 5 (91% of damage-death of the plant) | 5 (91% of damage-death of the plant) | 5 (91% of damage-death of the plant) | 5 (91% of damage-death of the plant) | 5 (91% of damage-death of the plant) | 5 (91% of damage-death of the plant) | 5 (91% of damage-death of the plant) | 5 (91% of damage-death of the plant) | 5 (91% of damage-death of the plant) | 5 (91% of damage-death of the plant) | 5 (91% of damage-death of the plant) | 5 (91% of damage-death of the plant) | 5 (91% of damage-death of the plant) | 4 (71-90% of damage) | 5 (91% of damage-death of the plant) | 4 (71-90% of damage)
4 | CCc1nnc([S+]([O-])Cc2c(C(F)(F)F)nn(C)c2OCC(F)(F)F)s1 (stereo not shown) [Nr. 121] | 5 (91% of damage-death of the plant) | 5 (91% of damage-death of the plant) | 5 (91% of damage-death of the plant) | 5 (91% of damage-death of the plant) | 5 (91% of damage-death of the plant) | 5 (91% of damage-death of the plant) | 5 (91% of damage-death of the plant) | 5 (91% of damage-death of the plant) | 4 (71-90% of damage) | 5 (91% of damage-death of the plant) | 5 (91% of damage-death of the plant) | 5 (91% of damage-death of the plant) | 5 (91% of damage-death of the plant) | 4 (71-90% of damage) | 5 (91% of damage-death of the plant) | 4 (71-90% of damage)
